Patent publication US11572373B2, “Maytansinoid-based drug delivery systems” (LADRX CORPORATION, priority 2017, dated 2023)

Tests used:
[1] = system: cancer cell lines (LXFL 529, RKO, SW-620, CAL-27, LXFL 1674L, MDA-MB 468, SK-OV-3, PAXF 1657, MCF7, COLO 205, MDA-MB 231, BT-474, Hep G2); experiment: In vitro cytotoxicity in different cell lines using the CellTiter-Blue Cell Viability Assay; assay type: cell-based, human; details: geometric mean over the n cell lines tested, 96 h treatment, CellTiter-Blue; read-out: Geomean IC50
[2] = Stability of maytansinoids and maytansinoid-HSA conjugates in CD1 mouse plasma; assay type: in vitro ADME; details: 37° C., 30 μM
Description: (§1) For studying the stability of the maytansinoids as wells as the maytansinoid-HSA conjugates in CD1 and human plasma the compounds were incubated at 37° C. for 24 hours. Remaining free maytansinoid or release of the respective maytansinoid was quantified by LC-MS/MS (or HPLC) at certain time points.
(§2) Pooled CD1 mouse or human plasma (K2EDTA, Innovative research) was centrifuged (1 min at 12,044 g). The supernatant was first filtered through a filter needle (5 μm, sterile, Becton Dickinson) and subsequently through a cellulose acetate membrane (0.45 μm, sterile, Carl Roth). The filtered plasma (1710 μL) was preincubated at 37° C. for 30 min in a heating block. The free maytansinoid or albumin-binding maytansinoid as a 300 μM stock solution in DMSO (190 μL) was added to the preincubated plasma sample to produce a 30 μM solution of the respective maytansinoid or maytansinoid-HSA conjugate. The mixture was allowed to react for 10 min at 37° C. and then at each time point (0, 1, 2, 3, 4, 5, 21, and 24 hours) three samples (70 μL) were taken into a 96-well plate, sealed with a plastic mat, immediately frozen with liquid nitrogen and stored at −20° C. At the end of the experiment, the 96-well plate was thawed at room temperature. The samples (30 μL) were then directly transferred via a multichannel pipette into a 96-well Impact™ protein precipitation plate (Strata®) which was once washed with MeCN (150 μL) and then loaded with the internal standard (120 μL, MeCN containing 5 μg/mL maytansine). The Impact™ precipitation plate was sealed with a silicone mat and shaken for 2 min 420 rpm. The Impact™ precipitation plate was then placed onto a 96-well sample manifold and the filtrate was collected into another 96-well plate by applying mild vacuum. The 96-well plate was sealed with a silicone mat and kept at room temperature until LC-MS/MS quantification. The filtrate was injected into the LC-MS for quantification using the MRM mode. […]

[3] = Stability of maytansinoids and maytansinoid-HSA conjugates in human plasma; assay type: in vitro ADME; details: 37° C., 30 μM
Description: as §1, §2

[4] = In vitro cytotoxicity in different cell lines using the CellTiter-Blue Cell Viability Assay; assay type: cell-based, human; details: Homo sapiens; geometric mean over the n cell lines tested, 96 h treatment, CellTiter-Blue; read-out: Geomean IC50

| Compound | IC50 [1] [pM] | % of free maytansinoid remaining after 24 h [2] [%] | % of free maytansinoid remaining after 24 h [3] [%] | IC50 [4] [pM] |
| --- | --- | --- | --- | --- |
| COc1cc2cc(c1Cl)N(C)C(=O)C[C@H](OC(=O)[C@H](C)N(C)C(=O)CCSSC)[C@]1(C)O[C@H]1[C@H](C)[C@@H]1C[C@@](O)(NC(=O)O1)[C@H](OC)/C=C/C=C(\C)C2 [DM1-SMe, reference compound] | 1300 | – | – | – |
| COc1cc2cc(c1Cl)N(C)C(=O)C[C@H](OC(=O)Cc1ccc(C(C)=O)cc1)[C@]1(C)O[C@H]1[C@H](C)[C@@H]1C[C@@](O)(NC(=O)O1)[C@H](OC)/C=C/C=C(\C)C2 [Compound 4] | – | 65.2 | 75.6 | 160 |
| COc1cc2cc(c1Cl)N(C)C(=O)C[C@H](OC(=O)COc1cccc(C(C)=O)c1)[C@]1(C)O[C@H]1[C@H](C)[C@@H]1C[C@@](O)(NC(=O)O1)[C@H](OC)/C=C/C=C(\C)C2 [Compound 3] | – | 40.8 | 69.6 | 100 |
| COc1cc2cc(c1Cl)N(C)C(=O)C[C@H](OC(=O)[C@H](C)N(C)C(=O)CCS)[C@]1(C)O[C@H]1[C@H](C)[C@@H]1C[C@@](O)(NC(=O)O1)[C@H](OC)/C=C/C=C(\C)C2 [DM1, reference compound] | 3220 | – | – | – |
| COc1cc2cc(c1Cl)N(C)C(=O)C[C@H](OC(=O)Cc1ccc(C(C)=O)cc1F)[C@]1(C)O[C@H]1[C@H](C)[C@@H]1C[C@@](O)(NC(=O)O1)[C@H](OC)/C=C/C=C(\C)C2 [Compound 2] | – | 71.8 | 74.8 | 300 |
